Assays:
Type in all cases: cell-based
[1] = system: HCV 1b replicon; experiment: Antiviral activity assay in HCV replicon system (Huh7 1b cells, luciferase reporter); conditions: Hepatitis C virus, Huh-7; Huh7 1b cells with HCV 1b replicon, Bright-Glo luciferase, 72 h; read-out: EC50
Summary of the method: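 Huh7 cells with stable HCV 1b luciferase replicon, 8×10^3/well, treated 72 h at 37 °C with 10-point 3-fold dilutions from 10 μM (0.5% DMSO), duplicate. Luciferase (Bright-Glo) gives % inhibition and EC50; CellTiter-Fluor read for cytotoxicity.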

[2] = system: J399EM (HCV genotype 2a) virus; experiment: Antiviral activity assay in the cell-culture-derived infectious HCV (HCVcc) system
Experimental: The compound according to the above example 1 was used in this experiment. The compound was formulated into a 10 mM mother liquid with DMSO, diluted to 500 nM by DMEM complete culture medium containing 0.5% of DMSO, followed by 4-fold dilution successively, and six concentrations were obtained. The positive control was diluted to 10 μM by DMEM complete culture medium containing 0.5% of DMSO, followed by 4-fold successively, and six concentrations were obtained.
(§1) Huh 7.5.1 cells, provided by Shanghai Institute of Materia Medica, Chinese Academy of Sciences.
J399EM (HCV genotype 2a) virus, i.e. a full length HCV mutant strain transfected with EGFP (enhanced green fluorescent protein) was used, which had the same infection capacity as the wild type JFH-1. The NS5A-EGFP fusion protein fluorescence was observed directly in infected cells by inserting EGFP coding sequence in the NS5A region. J399EM was provided by Shanghai Institute of Materia Medica, Chinese Academy of Sciences.
(§2) • 1) Huh 7.5.1 cells preparation: collecting the Huh7.5.1 cells in logarithmic phase, resuspending in DMEM complete culture medium, seeding into 96-well plates (7×10^3 cells/well), and incubating in a 37° C., 5% CO2 incubator for 24 h; • 2) virus infection: resuspending J399EM viruses in DMEM complete culture medium, adding the virus supernatant (MOI≈0.1) to the above 96-well plates, and washing with PBS after 8 hours of infection; • 3) drug treatment: adding various concentrations of the compounds to the Huh7.5.1 cells infected by J399EM viruses, with each concentration in duplicate; setting the control group with zero percent effect (ZPE) and the control group with hundred percent effect (HPE); replacing the compound with the DMEM complete culture medium containing 0.5% DMSO in ZPE group, and using the cells not infected with viruses in HPE group. • 4) cells incubation: incubating the 96-well plates in a 37° C., 5% CO2 incubator for 72 hr; • 5) anti-HCV activity detection: reading the relative fluorescence units (RFU) of each well by EnVision® Multi label Plate readers after incubation, and calculating the anti-HCV activity of the compounds using the obtained data according to the following formula: Inhibition %=(RFUZPE−RFUCPD)/(RFUZPE−RFUHPE)×100 • wherein RFUZPE represents the relative fluorescence units of the control group with zero percent effect and RFUCPD represents the relative fluorescence units of the corresponding compound group, and RFUHPE represents the relative fluorescence units of the control group with hundred percent effect. • 6) Cell viability detection: adding MTT solution to each well, incubating in a 37° C., 5% CO2 incubator for 4 hr, followed by addition of MTT dissolving solution, reading optical density (OD) of each well at 570 nm by the Multi label Plate readers after 6 hr, calculating the cytotoxicity of the compounds using the obtained data according to the following formula: Viability %=ODCPD/ODZPE×100 • wherein ODZPE represents the optical density of the control group with zero percent effect, and ODCPD represents the optical density of the corresponding compound; • 7) Data processing: processing the Inhibition %, Viability % by GraphPad Prism Software respectively, and obtaining the half maximal effective concentration (EC50) values and half maximal cytotoxic concentration (CC50) values of the compounds against the HVCcc GT2a viruses.

[3] = Cell viability detection (MTT) in the HCVcc system; conditions: human, Huh 7.5.1 cells infected with J399EM virus (HCVcc); Huh 7.5.1 cells, MTT, 72 hr
Experimental: as §1, §2

[4] = system: Huh 7.5.1 cells; experiment: Cell viability detection (MTT) in the HCVcc system; conditions: HCVcc system
Experimental: as §1, §2

Question: For CC(C)OC(=O)[C@H](C)NP(=O)(OC[C@H]1O[C@@H](n2ccc(=O)[nH]c2=O)[C@](C)(F)[C@@H]1O)Oc1ccc(-c2ccccc2)cc1 (stereo partly drawn) [Example 1, (2S)-2-((([1,1′-biphenyl]-4-yloxy)(((2R,3R,4R,5R)-5-(2,4-dioxo-3,4-dihydropyrimidin-1(2H)-yl)-4-fluoro-3-hydroxy-4-methyltetrahydrofuran-2-yl)methoxy)phosphoryl)amino)propanoic Acid Isopropyl Ester], which EC50 [1] is on record?
Answer: Its EC50 is 56 nM.

Question: And the “antiviral activity compared with the positive control” value ([2]; HCVcc system)?
Answer: Its value is “excellent”.

Question: What about the EC50 ([2]; Hepatitis C virus, Huh-7.5.1, 72 h) of the same molecule?
Answer: The EC50 was 39 nM.

Question: And the CC50 at 72 h [3]?
Answer: Its CC50 at 72 h is > 10000 nM.

Question: And the “cell toxicity compared with the positive control” value [4]?
Answer: The value was “less”.

Reference: patent US9963480B2, “Nucleoside phosphoramidate compound and use thereof” (priority 2013, dated 2018)
